Laboratory results published in patent US20200306295A1, “METHOD AND DEVICE FOR ANNIHILATION OF Staphylococcus aureus” (priority 2017, published 2020).
Converted amounts (≈) assume the structure as drawn. “Also recorded” adds a separate entry of the source. Like-named read-outs stand apart in the source and are kept apart here.

Tests used:
[1] = test system: MRSA NRS384 (MRSA USA 300); experiment: MIC by standard broth-dilution method; format: cell-based, S. aureus
Source text: For each measurement, three independent replicates were applied.

[2] = test system: stationary-phase MRSA; format: cell-based, S. aureus; details: for fold reduction of lowest concentration completely inhibiting MRSA growth within 18 hours, with laser treatment: 16 min laser stated for tetracycline, 2-fold or larger is synergy (FICI)
Protocol: To monitor the response of bacteria to laser treatment alone, antibiotic treatment alone, or their combinations, bacterial growth was continuously monitored overnight (18 hours with an interval of 30 min at 37° C.) by measuring optical density at 600 nm (OD600). Depending on the specific assay applied, the bacterial cells were suspended in 100 or 200 μl TSB medium under different treatment schemes (antibiotic alone, laser treatment alone, antibiotic plus laser treatment) with a final concentration of ˜10^5 CFU/ml. Bacterial growth was defined as OD600≥0.1.
Stationary-phase bacterial cells was washed and resuspended in 1×PBS at its original concentration. […] The treated droplet was collected and resuspended into 5 ml TSB (1:1000 dilution) for each group. Corresponding groups without laser treatment were also conducted for comparison. The bacterial suspensions were transferred to a 96-well plate with antibiotics supplemented into with the first row of the 96-well plate for eight two-fold serial dilution starting at a desired antibiotic concentration (e.g. ofloxacin: 2 μg/ml). After serial dilution, bacterial growth within the same well plate was monitored by a plate reader for 18 hours (OD600, 37° C.). The checkerboard assay was used for groups with laser treatment alone or laser plus antibiotic treatment. Two independent experiments of checkerboard assay were performed for each antibiotic with or without laser treatment. Based on the readout of OD600, a heat map was created to evaluate the antibiotic potentiation or synergistic effect enabled by STX photolysis.
Based on the checkerboard results, the fractional inhibitory concentration index (FICI), a synergy evaluation method between two antibiotics, was calculated as below: FICI=MIC of antibiotic A in combination/MIC of antibiotic A alone+MIC of antibiotic B in combination/MIC of antibiotic B alone. The interaction of the two antibiotics was defined as below: synergy if FICI≤0.5, no interaction if 0.5<FICI≤4, antagonism if FICI>4^46. […] Considering this reason, the synergy calculation was simplified as below: FICI=MIC of antibiotic A in combination with laser treatment/MIC of antibiotic A alone with synergy defined by FICI≤0.5.

[3] = test system: MRSA; experiment: microbe, parasite or virus in culture; format: cell-based, S. aureus; details: for MIC: Staphylococcus aureus, MRSA; for resistance development with laser treatment: 48-day serial passage, sub-MIC antibiotic with 10 min laser
Protocol: To understand whether laser treatment could cause genotypic or phenotypic change in MRSA, and whether STX photolysis could reduce the resistance development for conventional antibiotics, a serial passage study for each treatment scenario was conducted. The initial generation (Day 1) used in this study was stationary-phase MRSA. The sample was prepared, washed and resuspended in 1×PBS at its original concentration. An aliquot (5 μl) of the MRSA suspension was transferred onto a glass cover slide as a droplet of ˜5 mm in diameter with or without 10 min laser treatment (1 cm diameter illumination area, 120 mW). The droplets were then collected and resuspended into 5 ml of TSB medium (1:1000 dilution) with an estimated cell concentration of 10^5 CFU/ml. To study resistance development or selection induced by laser treatment alone, three groups were included: a group without laser treatment (SPO), a group with laser treatment (SPL1), and another independent group with laser treatment as a duplicate (SPL2). To study resistance development induced by antibiotic treatment alone and laser plus antibiotic treatment, three groups were included for each antibiotic: antibiotic alone-treated group (SPA0), laser plus antibiotic-treated group (SPLA1), and another laser plus antibiotic-treated group as another independent serial passage (SPLA2). For SPO, SPL1, and SPL2, 200 μl of bacterial suspension was directly transferred to each well of a 96-well plate, with three replicates conducted for each group. For SPA0, SPLA1, and SPLA2, 200 μl of bacterial suspension was transferred into the first dilution row of a 96-well plate with supplemented antibiotics at a desired starting concentration, whereas 100 μl of bacterial suspension was transferred to the rest dilution rows. […] Three replicates were applied for each group. These well plates were incubated in a shaker at 37° C. and 200 rpm for 18 hours followed by OD600 measurement by a plate reader. After MICs recording for each group, the well plates were continuously incubated in the shaker for 3 days in total. On Day 4, 200 μl of bacterial sample from each group was collected, washed, and resuspended in 1×PBS at its original concentration used as new inoculum for the next passage following the same protocol as described above. Samples for SPA0, SPLA1, and SPLA2 groups were collected from wells supplemented with sub-MIC antibiotic. Samples for SPO, SPL1, and SPL2 groups were also collected from the well plates. […] Serial passage for all groups were performed for […] with 16 generations in total. Raman spectroscopy was then applied to monitor STX expression level in groups of interest after the entire serial passage experiment. The protocol is detailed as below: 100 μl of ˜400 μl stored bacterial culture was collected, spun down with the supernatant being removed, then resuspended into 5 μl 1×PBS as high-concentration bacterial solution (20 times concentrated). An aliquot (1 μl) was transferred and then sandwiched between two glass cover slides for STX quantification by resonance Raman spectroscopy.

[4] = test system: stationary-phase MRSA; experiment: Time-killing assay in PBS with or without pulsed laser (CFU enumeration); format: cell-based, S. aureus; details: for synergy of laser treatment with antibiotic against MRSA: 5 min laser plus 10 MIC antibiotic (FIG. 32)
Protocol: To quantify viable bacterial cells, CFU experiments were performed. 100 μl of sample analyte was transferred into a 96-well plate and then three or four ten-fold serial dilution achieved by transferring 20 μl bacterial culture into 180 μl 1×PBS in the next dilution row. After serial dilution, an aliquot (4 μl) from each well was spotted onto sterile TSA plates. After incubating the plates overnight (˜18 hours) at 37° C., the colonies were enumerated, and cell number was calculated in CFU/ml. For each CFU enumeration experiment, three independent replicates were applied.
Stationary-phase MRSA was prepared, washed and resuspended in 1×PBS at two-times of its original concentration. […] After laser treatment, the droplets were resuspended into 200 μl of 1×PBS (1:40 dilution) supplemented with antibiotics at different concentrations in a mini centrifuge tube (89166-278, VWR international). For example, daptomycin was added into MRSA solution after laser treatment at desired concentration of 0×MIC, 5×MIC, 10×MIC, 30×MIC, or 100×MIC supplemented with 50 μg/ml CaCl2). Corresponding groups without laser treatment were also conducted for comparison. These tubes were incubated within an orbital incubator (37° C., 200 rpm) for different incubation time. At each specific time point, 40 μl of aliquot from each group was transferred to a 96-well plate for follow-up CFU enumerating assay. In the case of tobramycin, additional antibiotic washing by 1×PBS was performed before the CFU experiment to avoid antibiotic interference. For time-killing assay in fresh human whole blood, similar protocol was followed as above, except that 1×PBS was replaced by fresh human whole blood and the initial stationary-phase MRSA solution was diluted by ten times with a concentration of ˜10^7 CFU/ml.

[5] = test system: STX in MRSA
[6] = test system: stationary-phase MRSA; experiment: Gentamicin-Texas red intracellular uptake assay; format: cell-based, S. aureus; details: gentamicin conjugated with Texas red, confocal fluorescence
Protocol: To study laser-mediated intracellular uptake of gentamicin (a representative of aminoglycoside), gentamicin was conjugated with a fluorescent dye, Texas-red, to form gentamicin-Texas red. Briefly, 10 mg of gentamicin was dissolved into 1 ml of 0.1 M sodium bicarbonate buffer (58761-500ML, Sigma Aldrich). 10 mg/ml of Texas red-X succinimidyl ester (T6134, Thermo Fisher Scientific) was added to the gentamicin solution slowly drop by drop. Then the mixed solution was stirred at room temperature for 1 hour. Gentamicin-Texas red was purified through sufficient dialysis against 0.1 M sodium bicarbonate buffer in a dialysis sack (Slide-A-Lyzer G2 Dialysis Cassettes, 2K MWCo, 15 mL, 87719, Thermao Fisher Scientific), and harvested through lyophilization (Labconco). […] After treatment, bacterial droplet was collected into 985 μl of sterile 1×PBS, and then add 10 μl of 1 mg/ml Gentamicin-Texas red. Mixed solution was incubated at 37° C. for 30 min with a shaking speed of 200 rpm. After incubation, MRSA pellets were harvested through washing with sterile 1×PBS twice and then fixed with 10% formalin. […] Quantitative analysis of fluorescence emission intensity from individual MRSA cells was conducted and allocated among groups with different laser treatment time.

[7] = read-out: MIC after 48-day serial passage, sub-MIC antibiotic alone

## CC[C@H]1OC(=O)[C@H](C)[C@@H](O[C@H]2C[C@@](C)(OC)[C@@H](O)[C@H](C)O2)[C@H](C)[C@@H](O[C@@H]2O[C@H](C)C[C@H](N(C)C)[C@H]2O)[C@](C)(O)C[C@@H](C)C(=O)[C@H](C)[C@@H](O)[C@]1(C)O [Erythromycin]
[1]; Staphylococcus aureus
  MIC: 64 µg/mL (≈ 87.2 µM)

## CC1COc2c(N3CCN(C)CC3)c(F)cc3c(=O)c(C(=O)O)cn1c23 (stereo not drawn) [Ofloxacin, ofloxacin]
[2]
  fold reduction of lowest concentration completely inhibiting MRSA growth within 18 hours, with laser treatment: 2 fold
[1]; Staphylococcus aureus
  MIC: 0.5 µg/mL (≈ 1.38 µM)
[3]; [7]
  MIC: 128 µg/mL (≈ 354 µM)

## Cc1onc(-c2ccccc2)c1C(=O)N[C@@H]1C(=O)N2[C@@H]1SC(C)(C)[C@@H]2C(=O)O [Oxacillin, oxacillin]
[4]
  synergy of laser treatment with antibiotic against MRSA: synergy; also recorded: very obvious synergy
[2]; laser treatment plus oxacillin
  antibiotic concentration re-sensitized by laser treatment: 1 µg/mL
[1]; Staphylococcus aureus, MRSA NRS384 (MRSA USA 300), N = 3, read-out: MIC
  MIC: 8 µg/mL (≈ 19.9 µM)

## CO/N=C(\C(=O)N[C@@H]1C(=O)N2C(C(=O)O)=C(COC(C)=O)CS[C@H]12)c1csc(N)n1 [cefotaxime]
[4]
  synergy of laser treatment with antibiotic against MRSA: very obvious synergy
[4]; listed as cetotaxine
  synergy of laser treatment with antibiotic against MRSA: synergy

## O=C(O)c1cn(C2CC2)c2cc(N3CCNCC3)c(F)cc2c1=O [ciprofloxacin]
[4]
  synergy of laser treatment with antibiotic against MRSA: synergy; also recorded: very obvious synergy
[3]
  resistance development with laser treatment: no resistance
[3]; [7]
  MIC: 128 µg/mL (≈ 386 µM)
[3]; read-out: MIC over/after 48-day serial passage, sub-MIC antibiotic plus 10 min laser treatment
  MIC: ≤ 2 µg/mL

## CC(=O)NC[C@H]1CN(c2ccc(N3CCOCC3)c(F)c2)C(=O)O1 [linezolid]
[2]
  fold reduction of lowest concentration completely inhibiting MRSA growth within 18 hours, with laser treatment: 8 fold
[3]
  resistance development with laser treatment: resistance inhibition

## CN(C/C=C/c1ccccc1)Cc1cccc2ccccc12 [naftifine]
[5]; naftifine-treated MRSA, τ1=∞, wild-type MRSA 0.16±0.01 s
  second order bleaching constant τ2: 0.39 ± 0.07 s
[5]; times longer than wild-type MRSA
  τ2 of naftifine-treated MRSA relative to wild-type MRSA: 2.5 times

## NC[C@H]1O[C@H](O[C@H]2[C@H](O)[C@@H](O[C@H]3O[C@H](CO)[C@@H](O)[C@H](N)[C@H]3O)[C@H](N)C[C@@H]2N)[C@H](N)C[C@@H]1O [tobramycin]
[3]
  resistance development with laser treatment: resistance inhibition

## gentamicin
[4]
  synergy of laser treatment with antibiotic against MRSA: synergy; also recorded: very obvious synergy
[4]; pulsed laser treatment combined with antibiotic at 10 MIC (FIG. 32)
  MRSA reduction: more than 2 log
[1]; MRSA NRS384 (MRSA USA 300), N = 3
  MIC: 8 µg/mL
[6]
  intracellular uptake with laser treatment vs untreated: significantly more
[3]
  resistance development with laser treatment: Delayed resistance development

## ramoplanin
[3]
  resistance development with laser treatment: decreased resistance development is not shown
